In US6458776B1, “5-ASA derivatives having anti-inflammatory and antibiotic activity and methods of treating diseases therewith” (Nobex Corporation, priority 2000, dated 2002):

Columns and labels:
[1] = parameters: species or system rats; conditions: rat, 100 mg/kg
Protocol: 5-[4-(3-Carboxy-propionylsulfamoyl)-phenylazo]-2-hydroxy-benzoic acid (1), a compound of the present invention, and sulfasalazine (used as a control; not part of the present invention) were orally dosed to rats. The degradation and the generation of their metabolites after the oral dosing were measured to be able to confirm that (1) undergoes bacterial azo reduction and yields its metabolites, 5-aminosalicylic acid (5-ASA) and C4 sulfanomide.
This experiment was performed to confirm that (1) undergoes a bacterial reduction process and yields its metabolites in in-vivo metabolism. The quantification of its metabolites was also carried out. Sulfasalazine was used as a control since the same azo bond cleavage by bacteria occurs with it, which results in 5-aminosalicylic acid and sulfapyridine as its metabolites.
A total of 7 rats were used for the experiment and methylcellulose was used as a vehicle. The dosage amount was 100 mg/kg per rat. Three rats were dosed with (1) and the other three rats were dosed with sulfasalazine. One rat was used as a control and dosed with methylcellulose. Both urine and feces were collected over 2 days and analyzed by […].
Urine was collected each day and 300 μL of aliquot from each sample was centrifuged for 10 minutes at 5000 g. 80 μL of supernatant was injected for analysis. Feces was also collected, each day and homogenized with a 1:1 mixture of water and acetonitrile. This mixture was then centrifuged for 20 minutes at 5000 g. 80 μL of supernatant was injected for analysis.
A Waters 2690 HPLC was used for sample analysis as follows:
Mobile phase programming: Gradient
Mobile phase: A=Water+0.1% TFA B=Acetonitrile+0.1% TFA
Column: Phenomenex Max RP, 80 Å, 4.6 mm×250 mm
PDA settings: Collected spectrum: 210-400nm Extracted chromatogram: 280 and/or other
Run time/sample: Approximately 50 min.

Structure (SMILES)	melting point [°C]	degradation after oral dosing ([1]; in vivo)	compounds detected, day 2 collection ([1]; in vivo, po)	metabolites detected in feces, day 1 collection ([1]; in vivo, po)	metabolites detected in urine ([1]; in vivo, po)	parent compound detected in feces ([1]; in vivo, po)	parent compound detected in urine ([1]; in vivo, po)	azo reduction in vivo ([1]; po)	generation of sulfapyridine ([1]; in vivo, po)
O=C(O)CCC(=O)NS(=O)(=O)c1ccc(N=Nc2ccc(O)c(C(=O)O)c2)cc1 [(1), 5-[4-(3-Carboxy-propionylsulfamoyl)-phenylazo]-2-hydroxy-benzoic acid]	192	degraded and its metabolites were produced as expected	No compounds were detected	acetylated 5-ASA and C4 sulfanomide were detected	none of its metabolites were detected	not detected	only a very small amount	undergo azo reduction	
O=C(O)c1cc(/N=N/c2ccc(S(=O)(=O)Nc3ccccn3)cc2)ccc1O [Sulfasalazine, sulfasalazine, reference compound]		also degraded	No compounds were detected	Most rats showed acetylated 5-ASA				undergo azo reduction	only one rat showed the generation of sulfapyridine
O=C(O)CC(=O)NS(=O)(=O)c1ccc(N=Nc2ccc(O)c(C(=O)O)c2)cc1 [Example 3, 5-[4-(2-Carboxy-Acetylsulfamoyl)-Phenylazo]-2-Hydroxy-Benzoic Acid]	178								
